Measured values from patent US4937235A, “3- or 4-substituted oxotremorine derivatives” (American Cyanamid Company, priority 1989, dated 1990).
pIC50: −log10 of the molar value.

Tests used:
[1] = molecular target: muscarinic cholinergic receptor; test: [3H]-Cis-methyldioxolane (3H-CD) Binding Assay (High Affinity); settings: rat cerebral cortex, 1.0 nM 3H-CD, 25° C., 120 minutes, pH 7.4
[2] = molecular target: muscarinic cholinergic receptor; test: [3H] Quinuclidinyl Benzilate (3H-QNB) Binding Assay; set-up: species or system rat; settings: pH 7.4
aged monkey = settings: aged monkeys; cited from earlier work
SDAT patients = settings: cited from earlier work

Row | SMILES | pIC50 [1] | pIC50 [2] | pIC50 ([2]; rat cerebral cortex, 0.25 nM 3H-QNB, 25° C., 120 minutes) | improvement in performance (aged monkey) | improvement compared to physostigmine (SDAT patients)
1 | CC(=O)O[C@H]1CC(=O)N(CC#CCN(C)C)C1 [(S)-4-(Acetyloxy)-1-[4-(dimethylamino)-2-butynyl]-2-pyrrolidinone] | 4.38 | 2.87 |  |  | 
2 | O=C1C[C@H](O)CN1CC#CCN1CCCCC1 [(S)-4-Hydroxy-1-[4-(1-piperidinyl)-2-butynyl]-2-pyrrolidinone] | 4.44 | 3.70 |  |  | 
3 | O=C1C[C@H](O)CN1CC#CCN1CCCC1 [(S)-4-Hydroxy-1-[4-(1-pyrrolidinyl)-2-butynyl]-2-pyrrolidinone] | 5.31 | 3.57 |  |  | 
4 | CC(C)(C)[Si](C)(C)O[C@H]1CC(=O)N(CC#CCN2CCCC2)C1 [(S)-4-[[(1,1-Dimethylethyl)dimethylsilyl]oxy]-1-[4-(1-pyrrolidinyl)-2-butynyl]-2-pyrrolidinone] | 5.02 | 4.64 |  |  | 
5 | CC(=O)S[C@H]1CCN(CC#CCN2CCCC2)C1=O [(S)-S-(2-Oxo-1-[4-(1-pyrrolidinyl)-2-butynyl]-3-pyrrolidinyl]ethanethioic acid ester] | 7.15 | 5.40 |  |  | 
6 | CC(=O)S[C@H]1CCN(CC#CCN(C)C)C1=O [(S)-S-[1-[4-(Dimethylamino)-2-butynyl]-2-oxo-3-pyrrolidinyl]ethanethioic acid ester] | 5.81 | 4.40 |  |  | 
7 | CC(=O)S[C@H]1CCN(CC#CCN2CCCCC2)C1=O [(S)-S-[2-Oxo-1-[4-(1-piperidinyl)-2-butynyl]-3-pyrrolidinyl]ethanethioic acid ester] | 5.61 | 4.85 |  |  | 
8 | C[N+](C)(C)CC#CCN1CCCC1=O [N,N,N-Trimethyl-4-(2-oxo-1-pyrrolidinyl)-2-butyn-1-aminium iodide, reference compound] | 8.52 | 4.74 |  |  | 
9 | O=C1[C@H](SS[C@@H]2CCN(CC#CCN3CCCCC3)C2=O)CCN1CC#CCN1CCCCC1 [[R-(R*,R*)]-3,3'-dithiobis[1-[4-(1-piperidinyl)-2-butynyl]]-2-pyrrolidinone] | 5.74 |  | 5.05 |  | 
10 | COC(=O)C1=CCCN(C)C1 [arecoline] |  |  |  | significant improvement in performance | more-consistent improvement when compared to the anticholinesterase inhibitor physostigmine
11 | O=C1CCCN1CC#CCN1CCCC1 [oxotremorine] |  |  |  | significant improvement in performance | 
